Measured values taken from patent publication US8791138B2, “Compositions and methods for alleviating depression or improving cognition” (Clera Inc., priority 2008, dated 2014).

Experiments:
[1] = tested on: dopamine behavioral supersensitivity; assay: Dopamine behavioral supersensitivity in animals; type: in vivo; conditions: P. Seeman, Unpublished Results
[2] = tested on: depressive symptoms in acute exacerbations of schizophrenia; conditions: amisulpride 400-800 mg/day, haloperidol 15-20 mg/day, risperidone 8 mg/day; Peuskens et al. 2002; cited from earlier work
[3] = tested on: depression (Major Depressive Disorder); assay: Clinical observation of treatment-resistant depression patients, Hamilton Scale for Depression; type: in vivo, human
Text: All subjects were patients of a clinic for treatment-resistant depression at a tertiary hospital. Treatment-resistance was defined as a treatment failure on at least two other antidepressants prior to their referral to the clinic. Patients were deemed to be depressed by the referring psychiatrist as well as the treating psychiatrist according to DSM IV Criteria for Major Depressive Disorder.
The higher the value, the more severe the depression.

[4] = tested on: duration of immobility in the forced swimming test; conditions: mice, Nakazawa et al. 2003, cited from earlier work
[5] = molecular target: T1, cloned dopamine D3 receptors (Homo sapiens, UniProt P35462); assay: Radioligand Kd at cloned dopamine D3 receptors; type: binding
T1 construct: expressed in transfected cells
T1 sequence (P35462 whole entry): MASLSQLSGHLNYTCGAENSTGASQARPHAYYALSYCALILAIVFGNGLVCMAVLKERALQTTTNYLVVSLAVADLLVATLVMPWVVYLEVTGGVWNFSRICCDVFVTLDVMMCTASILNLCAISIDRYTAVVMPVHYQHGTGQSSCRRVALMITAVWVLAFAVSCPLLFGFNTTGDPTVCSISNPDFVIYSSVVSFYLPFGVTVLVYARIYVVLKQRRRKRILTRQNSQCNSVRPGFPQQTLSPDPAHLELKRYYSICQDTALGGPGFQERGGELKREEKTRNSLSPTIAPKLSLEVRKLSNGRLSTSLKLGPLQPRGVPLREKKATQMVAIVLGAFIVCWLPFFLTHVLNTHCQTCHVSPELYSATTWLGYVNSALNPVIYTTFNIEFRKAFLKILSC

CNCCC(Oc1ccc(C(F)(F)F)cc1)c1ccccc1 (stereo not shown) [fluoxetine]
dopamine behavioral supersensitivity in animals [1]: cause dopamine behavioral supersensitivity

CN(C)CCCN1c2ccccc2CCc2ccccc21 [imipramine]
dopamine behavioral supersensitivity in animals [1]: cause dopamine behavioral supersensitivity

CCN1CCCC1CNC(=O)c1cc(S(=O)(=O)CC)c(N)cc1OC (stereo not shown) [amisulpride]
Brief Psychiatric Rating Scale (BPRS) anxiety/depression subscore [2]: 5.6±6.1

O=C(CCCN1CCC(O)(c2ccc(Cl)cc2)CC1)c1ccc(F)cc1 [haloperidol]
Rating after end of haloperidol (Hamilton depression scale) ([3]; Subject A, 5th week after starting medication, rating before 7-day regimen 14): 9 (5th week)
Rating after end of haloperidol (Hamilton depression scale) ([3]; Subject B, 5th week after starting medication, rating before 7-day regimen 18): 15 (5th week)
Rating after end of haloperidol (Hamilton depression scale) ([3]; Subject C, 5th week after starting medication, rating before 7-day regimen 30): 12 (5th week)
Rating after end of haloperidol (Hamilton depression scale) ([3]; Subject D, 5th week after starting medication, rating before 7-day regimen 40): 32 (5th week)
Rating after end of haloperidol (Hamilton depression scale) ([3]; Subject E, 4th week after starting medication, rating before 7-day regimen 23): 7 (4th week)
Rating after end of haloperidol (Hamilton depression scale) ([3]; Subject F, 5th week after starting medication, rating before 7-day regimen 20): 4 (5th week)
Rating after end of haloperidol (Hamilton depression scale) ([3]; Subject G, 5th week after starting medication, rating before 7-day regimen 24): 13 (5th week)
severity of the depression after the 7-day treatment regimen ([3]; all patients, oral 0.2-0.3 mg/day graded for 7 days): decreased
Brief Psychiatric Rating Scale (BPRS) anxiety/depression subscore [2]: 4.4±5.5
effect on apigenin-induced decrease in immobility in the forced swimming test ([4]; haloperidol 0.2 mg/kg): blocked

CCN1CCC[C@H]1CNC(=O)c1c(O)c(Cl)cc(Cl)c1OC (racemic) [[^3H]raclopride]
Kd [5]: 1.6 nM

O=c1cc(-c2ccc(O)cc2)oc2cc(O)cc(O)c12 [apigenin]
duration of immobility in the forced swimming test [4]: significantly decreased

Cc1nc2n(c(=O)c1CCN1CCC(c3noc4cc(F)ccc34)CC1)CCCC2 [risperidone]
Brief Psychiatric Rating Scale (BPRS) anxiety/depression subscore [2]: 3.7±4.7
